{"source": "patent US12134784B2", "about": "“Method for preparing intestinal tract cell layer derived from pluripotent stem cell” (PUBLIC UNIVERSITY CORPORATION NAGOYA CITY UNIVERSITY, priority 2018, dated 2024)", "key": {"[1]": {"tested_on": "human iPS cell-derived intestinal organoid", "test": "Fibrosis model using intestinal organoid (TNF-α and TGF-β addition)", "type": "cell-based", "conditions": "20 μM inhibitor with 30 ng/mL TNF-α+2 ng/mL TGF-β, 48 hours", "procedure": "(A) A protocol for preparation of a fibrosis model. (B) The mRNA expression analysis of an intestinal organoid in the cases of addition of TNF-α+TGF-β and TGF-β inhibitor (SB431542, Repsox). Average±S.D. (n=3). The mRNA expression level of the control was regarded as 1.\n(§1) To prepare an inflammatory bowel disease model and a fibrosis model, 30 ng/mL TNF-α and 30 ng/mL TNF-α+2 ng/mL TGF-β were added for 96 hours and 48 hours from Day 34 after completion of differentiation induction, respectively. To suppress these reactions, 100 ng/mL infliximab (anti-TNF-α antibody) for the inflammatory bowel disease model and 20 μM SB431542 or 20 μM Repsox serving as a TGF-β inhibitor, for fibrosis model were added, respectively, for the same length of time as above. Note that, to enhance the function of an intestinal organoid, PD98059, 5-aza-2′-deoxycytidine, A-83-01 and N-[(3,5-difluorophenyl) acetyl]-L-alanyl-2-phenyl-1,l-dimethylethylester-glycine (DAPT) were added from Day 19 after initiation of differentiation induction to the completion of differentiation. The addition effects in these cases were checked.\nIn order to reproduce fibrosis of a tissue in-vitro, which is developed by chronic inflammation in inflammatory bowel disease, TNF-α and TGF-β, each are reported as a main cause, were added for 48 hours from Day 34 after completion of differentiation induction (FIG. 8A). […]"}, "[2]": {"tested_on": "CYP3A4", "test": "Inducibility of CYP3A4 in human intestinal organoid differentiated by using a polysaccharide polymer", "conditions": "VD3 1 μmol/L, 72 hours"}, "[3]": {"tested_on": "CYP3A4"}, "[4]": {"tested_on": "CYP3A4", "test": "CYP3A4 metabolic activity of human intestinal organoid (midazolam, LC-MS/MS)", "conditions": "5 μmol/L midazolam, 24 hours; addition of ketoconazole"}, "[5]": {"tested_on": "human iPS cell-derived intestinal organoid", "test": "Inflammatory bowel disease model using intestinal organoid (TNF-α addition)", "type": "cell-based", "procedure": "(A) Protocol for preparation of an inflammatory bowel disease model. (B) The mRNA expression analysis of an intestinal organoid in the cases of TNF-α and infliximab addition. Average±S.D. (n=3). The mRNA expression level of the control was regarded as 1. (C) Immunofluorescent staining of an intestinal organoid in the cases of TNF-α and infliximab addition. DAPI: Nuclear staining. Scale bar: 50 μm.\nas §1\nWhether an inflammatory bowel disease model can be prepared by using an intestinal organoid prepared by a new differentiation induction method was investigated by adding a main cause, i.e., an inflammatory cytokine, TNF-α, from Day 34 after completion of differentiation induction up to 96 hours (FIG. 7A). The expressions of villin and MUC2 gene decreased by addition of TNF-α; however, the expression of TNF-α increased. The decrease/increase in expression was suppressed by addition of an anti-TNF-α antibody, infliximab (FIG. 7B). Subsequently, expressions of a tight junction protein and an apoptosis marker were confirmed by immunofluorescent staining. It was observed that a tight junction structure is destroyed by addition of TNF-α. The number of cells positive to Caspase-3 increased. These changes were not found in an infliximab addition group (FIG. 7C). In inflammatory bowel disease, it is reported that an inflammatory cytokine affects in-vivo intestinal epithelial cells to destroy tight junction, with the result that the number of mucus secretory cells, i.e., goblet cells, decreases."}, "[6]": {"conditions": "30 ng/mL TNF-α, 96 hours from Day 34"}}, "data": [{"compound": "Cc1cccc(-c2[nH]ncc2-c2ccc3ncccc3n2)n1", "note": "[Repsox]", "values": [{"measurement": "decrease/increase in expression of fibrosis markers caused by TNF-α and TGF-β", "setting": "[1]", "result": "suppressed"}]}, {"compound": "NC(=O)c1ccc(-c2nc(-c3ccc4c(c3)OCO4)c(-c3ccccn3)[nH]2)cc1", "note": "[SB431542]", "values": [{"measurement": "decrease/increase in expression of fibrosis markers caused by TNF-α and TGF-β", "setting": "[1]", "result": "suppressed"}]}, {"compound": "C=C1/C(=C\\C=C2/CCC[C@]3(C)[C@@H]([C@H](C)CCCC(C)(C)O)CC[C@@H]23)C[C@@H](O)C[C@@H]1O", "note": "[activated vitamin D3, 1α, 25-dihydroxy vitamin D3]", "values": [{"measurement": "metabolic activity of midazolam", "setting": "[2]; 5 μmol/L midazolam, 24 hours", "result": "significantly increased"}, {"measurement": "mRNA expression of CYP3A4", "setting": "[2]; compared to control group", "result": "significantly induced"}, {"measurement": "mRNA expression level of CYP3A4 increased", "setting": "[3]", "result": "about 1700 fold"}]}, {"compound": "CC(=O)N1CCN(c2ccc(OCC3COC(Cn4ccnc4)(c4ccc(Cl)cc4Cl)O3)cc2)CC1", "note": "(stereo not drawn) [ketoconazole]", "values": [{"measurement": "midazolam's metabolic activity (CYP3A4)", "setting": "[4]", "result": "significantly inhibited"}]}, {"compound": "TNF-α", "values": [{"measurement": "number of cells positive to Caspase-3", "setting": "[5]; 30 ng/mL TNF-α, 96 hours", "result": "increased"}, {"measurement": "tight junction structure (immunofluorescent staining)", "setting": "[5]; 30 ng/mL TNF-α, 96 hours", "result": "destroyed"}, {"measurement": "expression of TNF-α", "setting": "[5]; [6]", "result": "increased"}, {"measurement": "expressions of villin and MUC2 gene", "setting": "[5]; [6]", "result": "decreased"}]}, {"compound": "infliximab: anti-TNF-α antibody", "values": [{"measurement": "destruction of tight junction structure and increase of Caspase-3 positive cells (immunofluorescent staining)", "setting": "[5]; 100 ng/mL infliximab with 30 ng/mL TNF-α, 96 hours", "result": "not found"}, {"measurement": "decrease/increase in expression (villin, MUC2, TNF-α) caused by TNF-α", "setting": "[5]; 100 ng/mL infliximab with 30 ng/mL TNF-α, 96 hours from Day 34", "result": "suppressed"}]}]}
